Source: patent US4565817A, “Theophyllinyl-alkyl-oxadiazoles, process for the preparation thereof and pharmaceutical compositions containing same” (Chinoin Gyogyszer-es Vegyeszeti Termekek Gyara R.T., priority 1982, dated 1986)

Key:
in vivo = details: mouse
guinea pigs = experiment: Cough relieving against 15% citric acid spray in guinea pigs, one hour after administration; type: in vivo; details: Cavia porcellus, im, 1 h, one hour after 50 mg/kg i.m., % related to the control, read-out: Cough inhibition Q %
Method: Q = Cough relieving induced by 15% citric acid spray in guinea pigs one
hour after administration of the substances (50 mg/kg, i.m.) expressed in
% related to the control.

[1] = system: trachea stria isolated from rabbit; experiment: Bronchial spasm induced by histamine, in vitro on isolated trachea stria
Excerpt: (§1) A special group of the compounds of the formula I are those compounds in which R1 stands for alkyl, aralkyl, or aryl. […] Path. […] This activity is significant in relieving cough of the asthmatic type.

[2] = system: spasm caused by acetyl choline or serotonine; experiment: Spasm caused by acetyl choline or serotonine
Excerpt: as §1

guinea pig = experiment: Bronchial spasm induced by histamine, in vivo according to Konzett and Rossler
Excerpt: as §1

[3] = General pharmacological activity (cough relieving, bronchodilatory, antiasthmatic, antiinflammatory); details: in vivo
[4] = system: rat paw carrageenin oedema; experiment: Rat paw carrageenin oedema test; type: in vivo; details: i.m. administration, compared with indomethacin
Excerpt: Another special group of the compounds according to the invention are the compounds having an alkyl amino group in place of R1. […] This activity is important in cough relieving accompanied by inflammation in the respiration system.

| Structure (SMILES) | LD50 (in vivo; iv) [mg/kg] | LD50 (in vivo; po) [mg/kg] | inhibition in vivo at 50 mg/kg (guinea pigs) [%] | further results |
| --- | --- | --- | --- | --- |
| CC(C)NCCc1nc(CCn2cnc3c2c(=O)n(C)c(=O)n3C)no1 [(CH2)2 (CH2)2 NHi.Pr] | 200 | 1750 | 54.7 |  |
| Cc1nc(Cn2cnc3c2c(=O)n(C)c(=O)n3C)no1 [Example 1, 7-[(5-methyl-1,2,4-oxadiazol-3-yl)-methyl]-theophylline] |  |  | 54.3 | bronchial spasm induced by histamine (in vitro) [1]: decreases the bronchial spasm induced by histamine; spasm caused by acetyl choline ([2]; acetyl choline): prevents the spasm caused by acetyl choline or serotonine; spasm caused by serotonine ([2]; serotonine): prevents the spasm caused by acetyl choline or serotonine; duration of activity (guinea pig; histamine-induced bronchial spasm, compared with theophylline ethylene diamine): considerably longer than in case of theophylline ethylene diamine; bronchial spasm induced by histamine (in vivo) (guinea pig; in vivo, guinea pig, Konzett and Rossler, histamine): decreases the bronchial spasm induced by histamine |
| Cn1c(=O)c2c(ncn2CCc2noc(CCN3CCOCC3)n2)n(C)c1=O | 217 | 2600 | 48.6 |  |
| CCN(CC)CCc1nc(Cn2cnc3c2c(=O)n(C)c(=O)n3C)no1 [Example 4, 7-[{5-(2-diethylamino-ethan-1-yl)-1,2,4-oxadiazol-3-yl}-methyl]-theophylline] | 215 | 1400 | 56.7 | pharmacological activity in words [3]: cough relieving and bronchodilatory activity; anti-inflammatory activity [4]: strong (comparable with indomethacin) anti-inflammatory activity |
| Cn1c(=O)c2c(ncn2Cc2noc(CCN3CCOCC3)n2)n(C)c1=O | 230 | 1530 | 55.4 |  |
| CCN(CC)CCc1nc(CCCn2cnc3c2c(=O)n(C)c(=O)n3C)no1 [Example 12, 7-[3-5-(2-diethylamino-ethan-1-yl)-1,2,4-oxadiazol-3-yl-propan-1-yl]-theophylline-maleinate] | 237 | 2250 | 51.5 |  |
| COc1ccc2c3c1O[C@H]1[C@@H](O)C=C[C@H]4[C@@H](C2)N(C)CC[C@@]341 [Codeine, reference compound] | 54 |  | 50 |  |
| CCCc1nc(Cn2cnc3c2c(=O)n(C)c(=O)n3C)no1 [Example 18] | 390 | 1400 | 51.1 |  |
| Cn1c(=O)c2c(ncn2Cc2noc(CCN3CCCCC3)n2)n(C)c1=O | 240 | 1550 | 54.1 |  |
| CN1CCN(CCc2nc(Cn3cnc4c3c(=O)n(C)c(=O)n4C)no2)CC1 | 224 | 1670 | 54.5 |  |
| CN1CCN(CCc2nc(CC(O)Cn3cnc4c3c(=O)n(C)c(=O)n4C)no2)CC1 (stereo not shown) | 215 | 1800 | 48.6 |  |
| c1ccc(C(Cc2noc(CCN3CCCCC3)n2)c2ccccc2)cc1 [Prenoxdiazine, reference compound] | 34 | 920 | 44.5 |  |
| Cn1c(=O)c2c(ncn2CCCc2noc(CCN3CCOCC3)n2)n(C)c1=O | 220 | 1900 | 47.7 |  |
